Legend:
Format in all cases: in vivo
[1] = test system: diamondback moth (Plutella xylostella); assay: Insecticidal effect on diamondback moth (Test Example 1); conditions: diamondback moth; for Insecticidal effect, Test Example 1: mortality judged by criterion of Test Example 1; for Insecticidal effect (Test Example 1), judged from mortality: judged by the criterion of Test Example 1
Outline: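 Eggs laid by adult moths on Chinese cabbage seedlings, which were immersed in test solution, air-dried and kept at 25 °C. Hatched insects counted 6 days after immersion and mortality calculated, with effect graded by criterion; triplicate groups of 10 insects.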

[2] = test system: common cutworm (Spodoptera Litura); assay: Insecticidal effect on common cutworm (Test Example 2); conditions: 500 ppm, 25° C.; for Insecticidal effect, Test Example 2: common cutworm second-instar larvae, cabbage leaf immersed, eight days after inoculation; for Insecticidal effect (Test Example 2), judged from mortality: cabbage leaf dip, second-instar larvae of common cutworm, 8 days after inoculation
Outline: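 After the treated material air-dries, it goes into a dish, second-instar larvae are added, and the dish is closed. Incubation runs at 25° C. On day eight, dead and living larvae are scored, and the calculated mortality is rated on an effect scale.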

[3] = test system: rice leafroller (Cnaphalocrocis medinalis); assay: Insecticidal effect on rice leafroller (Test Example 3); conditions: 500 ppm, 25° C., humidity 70%; for Insecticidal effect, Test Example 3: rice leafroller third-instar larvae, rice lamina immersed, four days after inoculation; for Insecticidal effect (Test Example 3), judged from mortality: rice lamina dip, third-instar larvae of rice leafroller, 4 days after inoculation
Outline: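 Groups of 10 third-instar larvae, in triplicate, are placed on air-dried lamina resting on wet filter paper. Incubation runs four days at 25° C with 70% humidity before survivors and dead are tallied.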

| SMILES | Insecticidal effect, Test Example 1 [1] | Insecticidal effect, Test Example 2 [2] | Insecticidal effect, Test Example 3 [3] | Insecticidal effect (Test Example 1), judged from mortality [1] | Insecticidal effect (Test Example 2), judged from mortality [2] | Insecticidal effect (Test Example 3), judged from mortality [3] |
| --- | --- | --- | --- | --- | --- | --- |
| Cc1cc(OC(F)F)ccc1NC(=O)c1cccc(I)c1C(=O)NCc1ccccc1 [compound 1430] | A (100) | D (79-50) | A (100) | – | – | – |
| Cc1cc(C(F)(F)C(F)(F)F)ccc1NC(=O)c1c(Cl)cccc1C(=O)N(C)Cc1ccccc1 [compound 1436] | A (100) | A (100) | A (100) | – | – | – |
| Cc1cc(C(F)(F)C(F)(F)F)ccc1NC(=O)c1cccc(I)c1C(=O)N(C)Cc1ccccc1 [compound 1438] | A (100) | A (100) | A (100) | – | – | – |
| Cc1cc(C(F)(F)C(F)(F)F)ccc1NC(=O)c1cccc(Cl)c1C(=O)N[C@@H](C)CO [compound 1445] | – | – | – | A (100) | A (100) | A (100) |
| CC(C)(C)NC(=O)c1c(Cl)cccc1C(=O)Nc1ccc(C(F)(F)C(F)(F)F)cc1 [compound 1447] | – | – | – | A (100) | A (100) | A (100) |
| CC(C)(C)NC(=O)c1c(Cl)cccc1C(=O)Nc1ccc(C(F)(F)C(F)(F)F)cc1F [compound 1448] | – | – | – | A (100) | A (100) | A (100) |
| CC(C)(C)NC(=O)c1c(Cl)cccc1C(=O)Nc1ccc(C(F)(F)C(F)(F)F)cc1Cl [compound 1449] | – | – | – | A (100) | A (100) | A (100) |
| CCCNC(=O)c1c(I)cccc1C(=O)Nc1ccc(OC(F)F)cc1C [compound 1450] | – | – | – | A (100) | A (100) | A (100) |
| Cc1cc(OC(F)F)ccc1NC(=O)c1cccc(I)c1C(=O)NC1CC1 [compound 1452] | – | – | – | A (100) | A (100) | A (100) |
| CCC(C)NC(=O)c1c(I)cccc1C(=O)Nc1ccc(OC(F)F)cc1C (stereo not drawn) [compound 1454] | – | – | – | A (100) | A (100) | A (100) |
| Cc1cc(OC(F)F)ccc1NC(=O)c1cccc(Cl)c1C(=O)N[C@H](C)c1ccccc1 [compound 1458] | – | – | – | A (100) | A (100) | A (100) |
| Cc1cc(C(F)(F)C(F)(F)F)ccc1NC(=O)c1cccc(Cl)c1C(=O)N[C@H](C)CO [compound 1460] | – | – | – | A (100) | C (89-80) | A (100) |
| Cc1cc(C(F)(F)C(F)(F)F)ccc1NC(=O)c1cccc(I)c1C(=O)NC(C)(C)CO [compound 1464] | – | – | – | A (100) | A (100) | A (100) |
| C#CC(C)(C)NC(=O)c1c(Cl)cccc1C(=O)Nc1ccc(C(F)(F)C(F)(F)F)cc1C [compound 1466] | – | – | – | A (100) | A (100) | A (100) |
| C#CC(C)(C)NC(=O)c1cccc(Cl)c1C(=O)Nc1ccc(C(F)(F)C(F)(F)F)cc1C [compound 1467] | – | – | – | A (100) | A (100) | A (100) |
| Cc1cc(C(F)(F)C(F)(F)F)ccc1NC(=O)c1cccc(Cl)c1C(=O)NCc1ccccc1F [compound 1468] | – | – | – | A (100) | C (89-80) | A (100) |
| CCC(C)NC(=O)c1c(I)cccc1C(=O)Nc1ccc(C(F)(F)C(F)(F)F)cc1F (stereo not drawn) [compound 1472] | – | – | – | A (100) | A (100) | A (100) |
| CCC(C)NC(=O)c1c(I)cccc1C(=O)Nc1ccc(C(F)(F)C(F)(F)F)cc1Cl (stereo not drawn) [compound 1473] | – | – | – | A (100) | A (100) | A (100) |

| SMILES | Insecticidal effect, Test Example 1 [1] | Insecticidal effect, Test Example 2 [2] | Insecticidal effect, Test Example 3 [3] | Insecticidal effect (Test Example 1), judged from mortality [1] | Insecticidal effect (Test Example 2), judged from mortality [2] | Insecticidal effect (Test Example 3), judged from mortality [3] |
| --- | --- | --- | --- | --- | --- | --- |
| CC(C)NC(=O)c1c(I)cccc1C(=O)Nc1ccc(C(F)(F)C(F)(F)C(F)(F)F)cc1F [compound 1474] | – | – | – | A (100) | A (100) | A (100) |
| CCc1cc(C(F)(F)C(F)(F)F)ccc1NC(=O)c1cccc(I)c1C(=O)NC(C)(C)C [compound 1475] | – | – | – | A (100) | A (100) | A (100) |
| Cc1cc(C(F)(F)C(F)(F)F)ccc1NC(=O)c1cccc(Cl)c1C(=O)NC(C)(C)C#Cc1cccs1 [compound 1479] | – | – | – | A (100) | A (100) | A (100) |
| Cc1cc(C(F)(F)C(F)(F)F)ccc1NC(=O)c1cccc(I)c1C(=O)N[C@H](C)CO [compound 1481] | – | – | – | A (100) | A (100) | A (100) |
| Cc1cc(C(F)(F)C(F)(F)F)ccc1NC(=O)c1cccc(I)c1C(=O)N[C@@H](C)CO [compound 1482] | – | – | – | A (100) | A (100) | A (100) |
| Cc1cc(C(F)(F)C(F)(F)F)ccc1NC(=O)c1cccc(Cl)c1C(=O)NC(C)(C)c1ccc(Cl)cc1 [compound 1484] | – | – | – | A (100) | A (100) | A (100) |
| Cc1cc(C(F)(F)C(F)(F)F)ccc1NC(=O)c1cccc(Cl)c1C(=O)NC(C)(C)c1cccc(Cl)c1 [compound 1485] | – | – | – | A (100) | A (100) | A (100) |
| CCNC(=O)c1c(Cl)cccc1C(=O)Nc1ccc(C(F)(F)C(F)(F)F)cc1Cl [compound 1489] | – | – | – | A (100) | A (100) | A (100) |
| CCCNC(=O)c1c(Cl)cccc1C(=O)Nc1ccc(C(F)(F)C(F)(F)F)cc1F [compound 1491] | – | – | – | A (100) | A (100) | A (100) |
| CC(C)NC(=O)c1c(Cl)cccc1C(=O)Nc1ccc(C(F)(F)C(F)(F)C(F)(F)F)cc1F [compound 1494] | – | – | – | A (100) | A (100) | A (100) |
| CCc1cc(C(F)(F)C(F)(F)F)ccc1NC(=O)c1cccc(Cl)c1C(=O)NC(C)C [compound 1495] | – | – | – | A (100) | A (100) | A (100) |
| CC(C)(C)NC(=O)c1c(Cl)cccc1C(=O)Nc1ccc(C(F)(F)C(F)(F)C(F)(F)F)cc1F [compound 1496] | – | – | – | A (100) | A (100) | A (100) |
| CCc1cc(C(F)(F)C(F)(F)F)ccc1NC(=O)c1cccc(Cl)c1C(=O)NC(C)(C)C [compound 1497] | – | – | – | A (100) | A (100) | A (100) |
| CCC(C)NC(=O)c1c(Cl)cccc1C(=O)Nc1ccc(C(F)(F)C(F)(F)F)cc1F (stereo not drawn) [compound 1498] | – | – | – | A (100) | A (100) | A (100) |
| CCC(C)NC(=O)c1c(Cl)cccc1C(=O)Nc1ccc(C(F)(F)C(F)(F)F)cc1Cl (stereo not drawn) [compound 1499] | – | – | – | A (100) | A (100) | A (100) |
| CCC(C)NC(=O)c1c(Cl)cccc1C(=O)Nc1ccc(C(F)(F)C(F)(F)C(F)(F)F)cc1F (stereo not drawn) [compound 1500] | – | – | – | A (100) | A (100) | A (100) |
| CCc1cc(C(F)(F)C(F)(F)F)ccc1NC(=O)c1cccc(Cl)c1C(=O)NC(C)CC (stereo not drawn) [compound 1501] | – | – | – | A (100) | A (100) | A (100) |
